US20260216074A1, “USE OF PACLITAXEL CATIONIC LIPOSOME IN TREATING TUMORS” (CSPC ZHONGQI PHARMACEUTICAL TECHNOLOGY (SHIJIAZHUANG) CO., …, priority 2023, published 2026)
Marks after values point to notes of the source that are not given here.

How the values were obtained:
[1] = tested on: human pancreatic cancer CFPAC-1 xenografts; experiment: Inhibitory effect on human pancreatic cancer CFPAC-1 xenografts in mice; type: in vivo, human cells in female Nu/Nu nude mice
Description: Experimental animal: female Nu/Nu nude mice provided by Beijing Vital River Laboratory Animal Technology Co., Ltd.
Experimental method: Female Nu/Nu nude mice were subcutaneously inoculated with human pancreatic cancer CFPAC-1 cells. 5 days after inoculation, the mice were divided into 7 groups when the mean tumor volume was 228 mm^3 (d0), namely, the vehicle control group (5% glucose injection), the 6 mg/kg of A1 group, the 3 mg/kg or 6 mg/kg of A1+20 mg/kg of gemcitabine for injection (GEM) group, the 6 mg/kg of paclitaxel injection (Taxol) group, the 6 mg/kg of Taxol+20 mg/kg of GEM group, and the 20 mg/kg of GEM group, respectively. There were 10 mice in each group. Drugs were administered intravenously (except that the GEM was administered intraperitoneally for 5 times (at the first five time points)) at d0, d3, d6, d9, d13, and d16 for a total of 6 times. After the last administration, the mice were further observed for 11 d (i.e. d27) and the experiment was terminated. During the experiment, the body weight and tumor volume of animals were monitored twice a week, and the tumor volume (TV) was calculated. At the end of the experiment, the tumor weight was weighed and the tumor weight inhibition rate was calculated.
Methods for drug preparation: A1 was prepared using the same method as in Example 2. The gemcitabine for injection was dissolved in saline to achieve the desired concentration. Paclitaxel injection (Taxol) was diluted with saline to the desired concentration.

[2] = tested on: prostate cancer RM-1 allografts; experiment: Inhibitory effect of combination with DDP on prostate cancer RM-1 allografts in mice; type: in vivo, mouse RM-1 cells in female C57/BL6 mice
Description: Experimental animal: female C57/BL6 mice provided by Beijing Vital River Laboratory Animal Technology Co., Ltd.
Experimental method: Female C57/BL6 mice were subcutaneously inoculated with mouse prostate RM-1 cells. Six days after inoculation, the mice were grouped when the mean tumor volume was about 140 mm^3 (d0). Drugs were administered intravenously (except that DDP was administered intraperitoneally) at d0, d2, d4, d6, d8, and d10 for a total of 6 times. The experiment was terminated at d15. In the A1 high-dose group, A1 was administered at a dose of 12 mg/kg for the first three times and 6 mg/kg for the last three times, with a cumulative dose of 54 mg/kg; in the A1 low-dose group, A1 was administered at a dose of 6 mg/kg for six times, with a cumulative dose of 36 mg/kg; in the DPP group, DPP was administered at a dose of 1 mg/kg for six times, with a cumulative dose of 6 mg/kg; in the vehicle control group, 5% glucose injection (at an equal volume to A1 high-dose group) was administered; in the A1+DDP-1 group, A1 was administered at a dose of 6 mg/kg for six times, with a cumulative dose of 36 mg/kg, and DPP was administered at a dose of 1 mg/kg for six times, with a cumulative dose of 6 mg/kg; in the A1+DDP-2 group, A1 was administered at a dose of 12 mg/kg for the first three times and 6 mg/kg for the last three times with a cumulative dose of 54 mg/kg, and DPP was administered at a dose of 1 mg/kg for six times, with a cumulative dose of 6 mg/kg. During the experiment, the body weight and tumor volume of animals were monitored three times a week, and the values of the tumor volume (TV), relative tumor volume (RTV), and relative tumor proliferation rate (T/C) were calculated.
Methods for drug preparation: A1: the paclitaxel cationic liposome was dissolved by adding water for injection, and then diluted with glucose and sodium chloride injection to the desired concentration; DDP: the DDP powder was dissolved in 5% glucose injection and subjected to ultrasound to formulate the desired concentration.

[3] = tested on: human triple-negative breast cancer MDA-MB-231 xenografts; experiment: Inhibitory effect on human triple-negative breast cancer MDA-MB-231 xenografts in mice; type: in vivo, human cells in female NOD/SCID mice; settings: dose 400 mg/kg po
Description: Experimental animal: female NOD/SCID mice provided by Beijing Vital River Laboratory Animal Technology Co., Ltd.
Experimental method: Female NOD/SCID mice were subcutaneously inoculated with human triple-negative breast cancer MDA-MB-231 cells. 7 days after inoculation, the mice were divided into 7 groups when the mean tumor volume was 120 to 130 mm^3 (d0), namely, the vehicle control group (5% glucose injection), the 6 mg/kg of A1 group, the 3 mg/kg or 6 mg/kg of A1+400 mg/kg of capecitabine for injection (CAP) group, the 6 mg/kg of paclitaxel injection (Taxol) group, the 6 mg/kg of Taxol+400 mg/kg of CAP group, and the 400 mg/kg of CAP group, respectively. The CAP for injection was administered intragastrically twice a week and the other drugs were administered intravenously twice a week for a total of 7 times (d0, d3, d7, d10, d14, d17, and d21). The experiment was terminated at d28. During the experiment, the body weight and tumor volume of animals were monitored twice a week, and the tumor volume (TV) was calculated. At the end of the experiment, the tumor weight was weighed and the tumor weight inhibition rate was calculated.
Methods for drug preparation: CAP was prepared by diluting with water for injection to the desired concentration, and the rest of drugs were prepared according to the method described in Example 3.

Nc1ccn([C@@H]2O[C@H](CO)[C@@H](O)C2(F)F)c(=O)n1 [GME, gemcitabine] was tested, and the “Tumor Volume d27” value ([1]; dose 20 mg/kg ip x5, x ± sd, n = 10) was 720.9 ± 152.8** mm^3, the “Tumor Volume d0” value ([1]; dose 20 mg/kg ip, d0 at grouping, before dosing, x ± sd, n = 10) was 227.3 ± 52.8 mm^3 and the “Tumor Weight Inhibition Rate” value ([1]; dose 20 mg/kg ip, end of experiment (d27)) was 48.4%. For the same molecule, the “Tumor Weight” value ([1]; dose 20 mg/kg ip, end of experiment (d27), x ± sd, n = 10) was 0.8238 ± 0.3253 g.
In the case of N.N.[Cl][Pt][Cl] [DDP, Cisplatin], the “Tumor Volume d15” value ([2]; cumulative dose 6 mg/kg (1 mg/kg x6) i.p., d0-d10, x ± sd, n = 9) is reported as 3494.6 ± 710.9 mm^3, the “Tumor Volume d0” value ([2]; cumulative dose 6 mg/kg (1 mg/kg x6) i.p., d0 at grouping, before dosing, x ± sd, n = 9) is reported as 145.1 ± 22.8 mm^3 and the T/C ([2]; cumulative dose 6 mg/kg i.p., d15) is reported as 77.1%. It also gave an RTV ([2]; cumulative dose 6 mg/kg i.p., d15, x ± sd, n = 9) of 24.9 ± 7.6.
For CCCCCOC(=O)Nc1nc(=O)n([C@@H]2O[C@H](C)[C@@H](O)[C@H]2O)cc1F [CAP, capecitabine], the “Tumor Volume d20” value ([3]; 7 times, x ± sd, n = 10) was 1708.3 ± 564.8** mm^3, the “Tumor Volume d0” value ([3]; d0 at grouping, before dosing, x ± sd, n = 10) was 124.5 ± 19.4 mm^3 and the “Tumor Weight Inhibition Rate” value ([3]; end of experiment (d28)) was 33.4%. For the same molecule, the “Tumor Weight” value ([3]; end of experiment (d28), x ± sd, n = 10) was 1.3679 ± 0.2649 g.
